From patent publication US7829560B2, “1,4-disubstituted naphthalenes as inhibitors of P38 MAP kinase” (Arqule, Inc., priority 2004, dated 2010)

Target: T1, p38α (Homo sapiens, UniProt Q16539)
T1 construct: p38 MAP Kinases are recombinant human full-length proteins with an amino-terminal GST fusion; GST (N); purchased Upstate Biotechnology Inc; host or cells: E. coli
Test: p38 MAP Kinase assay: inhibition of ATF2 phosphorylation, ELISA
Format: biochemical
Details: for inhibition at 10 µM: substrate ATF2, read-out: [ENZ] P38 ALPHA, PCT INH, ELISA (10 uM;ATF2) (Percent); for IC50: ATF2 phosphorylation, read-out: [ENZ] P38 ALPHA, IC50, ELISA
Source text: Compounds of the invention are screened for the ability to inhibit ATF2 phosphorylation by p38 MAP Kinase in vitro. The ability of compounds to inhibit ATF2 phosphorylation in this in vitro assay is correlated with the inhibition of p38 MAP Kinase and TNFα expression in vivo, and is therefore an indicator of potential in vivo therapeutic activity (Raingeaud, J., et al, J. Biol. Chem., 270: 7420-7426, 1995, Brinkman, M. N., et al, J. Biol. Chem. 274: 30882-30886, 1999 and Fuchs, S. Y. et al, J. Biol. Chem. 275: 12560-12564, 2000).
Materials: All kinases and the substrate ATF2 are acquired from Upstate Biotechnology Inc. p38 MAP Kinases are recombinant human full-length proteins with an amino-terminal GST fusion, expressed in and purified from E. coli. ATF2 is a GST fusion protein containing amino acids 19-96 of human ATF2 expressed in E. coli. All proteins are aliquoted and stored at −80° C.
Methods: p38 MAP Kinase assays are performed using an assay buffer containing 25 mM HEPES, pH 7.5, 10 mM MgCl2, 2 mM DTT, 20 mM β-glycerophosphate, 0.1 mM Na3VO4, 40 μM ATP and 1.25 μM of ATF2 and in the absence or presence of 1% human serum albumin, Method I and II, respectively, with 0.4-6 ng of protein depending on the kinase used. Compounds are serially diluted in DMSO and 2 μL of test compound at 25× final concentration is used. The vehicle control receives DMSO only. Test compounds are pre-incubated with 20 μl of enzyme in kinase buffer (25 mM HEPES, pH 7.5, 10 mM MgCl2, 2 mM DTT, 20 mM β-glycerophosphate, 0.1 mM Na3VO4 in the absence or presence of 1% human serum albumin, Method I and II, respectively) at room temperature for 15 minutes. […] The reactions are incubated for 30 minutes at 37° C. and terminated by the addition of 18 μl of 200 mM EDTA. An ELISA method (I or II) is used to measure the phosphorylation of ATF2 at Thr 69. Method I: 96-well high binding plates (Corning 3369) are coated with 50 μl of kinase reaction for 1 hour at 37° C. The coated plates are washed with 200 μl washing buffer (25 mM Tris HCl, pH 8.3, 192 mM glycine, 0.1% SDS and 0.05% Tween-20) three times. The plates are then washed three times with SuperBlock in TBS (Pierce, 37535). After blocking, plates are incubated with 50 μl of rabbit anti-phospho-ATF2 antibody (Cell Signaling, 9221L, 1:500) for 30 minutes at 37° C. Plates are washed three times with washing buffer prior to incubation with 50 μl HRP-conjugated goat anti-rabbit antibody (Cell Signaling, 7074, 1:500) for 30 minutes at 37° C. Plates are then washed three times with washing buffer before incubation with 50 μl of Ultra TMB-ELISA (Pierce, 34028) for 8 minutes at room temperature. Finally, 50 ul of phosphoric acid (1 M) is added to stop reactions and plate absorbance is read at 450 nm on a SpectraMax 250 plate reader. Method II: 96-well high binding plates (Corning 3369) are coated with 400 ng of monoclonal antibody against GST-tag (Cell signaling) in 100 μl containing sodium borate (pH 8.3) for 90 minutes at 37° C. The plates are washed with 200 μl washing buffer (25 mM Tris HCl, pH 7.2, 150 mM NaCl and Tween-20) three times and blocked with 200 μl of 5% nonfat milk for 30 minutes at room temperature. The plates are washed three times with washing buffer, 50 μl of stopped kinase reaction are added to each well and incubated for 80 minutes at 37° C. The plates are washed three times with 200 μl washing buffer, and the plates are incubated with 50 μl of rabbit anti-phospho-ATF2 antibody (Cell Signaling, 9221L, 1:500) for 30 minutes at 37° C. Plates are washed three times with washing buffer prior to incubation with 50 μl HRP-conjugated goat anti-rabbit antibody (Cell Signaling, 7074, 1:500) for 30 minutes at 37° C. Plates are washed three times with washing buffer before incubation with 50 μl of Ultra TMB-ELISA (Pierce, 34028) for 25 minutes at room temperature. Finally, 50 μl of phosphoric acid (1 M) is added to stop reactions and plate absorbance is read at 450 nm on a SpectraMax 250 plate reader. […]

T1 sequence (Q16539 whole entry, the tested form may be a part): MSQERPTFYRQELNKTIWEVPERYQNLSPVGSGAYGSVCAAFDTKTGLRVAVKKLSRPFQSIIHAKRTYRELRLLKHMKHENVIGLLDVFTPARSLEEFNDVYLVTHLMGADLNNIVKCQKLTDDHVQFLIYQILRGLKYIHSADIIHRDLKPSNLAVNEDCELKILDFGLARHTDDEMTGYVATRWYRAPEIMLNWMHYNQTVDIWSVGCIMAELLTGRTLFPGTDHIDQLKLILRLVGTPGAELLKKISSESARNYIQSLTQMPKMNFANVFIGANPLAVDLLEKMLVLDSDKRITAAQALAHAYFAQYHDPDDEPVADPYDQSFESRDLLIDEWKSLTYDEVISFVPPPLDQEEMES

Cc1cc(C(=O)Nc2ccc(OCCN3CCOCC3)c3ccccc23)cc(Cl)n1 [Compound B64]
inhibition at 10 µM: 3%

O=C(Nc1ccc(OCCN2CCOCC2)c2ccccc12)c1ccnc(N2CCC(Cc3ccccc3)CC2)c1 [Compound B124]
inhibition at 10 µM: 7%

O=C(Nc1ccc(OCCN2CCOCC2)c2ccccc12)c1cccc(N2CCc3ccccc3C2)c1 [Compound B168]
inhibition at 10 µM: 36%

O=C(Nc1ccc(OCCN2CCSCC2)c2ccccc12)c1ccc(-n2cccn2)cc1 [Compound B11]
inhibition at 10 µM: 24%

CN1CCN(CCOc2ccc(NC(=O)c3ccnc(N4CCOCC4)c3)c3ccccc23)CC1 [Compound B21]
inhibition at 10 µM: 19.5%

O=C(Nc1ccc(OCCN2CCOCC2)c2ccccc12)c1cccc(N2CCC(c3ccccc3)CC2)n1 [Compound B72]
inhibition at 10 µM: 0%

O=C(Nc1ccc(OCCN2CCOCC2)c2ccccc12)C1=CC=CC(C(F)(F)F)C1Cl (stereo not shown) [Compound B81]
inhibition at 10 µM: 6%

O=C(Nc1ccc(OCCN2CCOCC2)c2ccccc12)c1cccc(N2CCC(N3CCCC3)CC2)c1 [Compound B171]
inhibition at 10 µM: 16%

O=C(Nc1ccc(OCCN2CCOCC2)c2ccccc12)c1cccc2c1Cc1ccccc1-2 [Compound B75]
inhibition at 10 µM: 27%
IC50: > 10 µM

Cc1cc(C(=O)Nc2ccc(OCCN3CCOCC3)c3ccccc23)cc(N2CCC(N3CCCC3)CC2)n1 [Compound B152]
inhibition at 10 µM: 0%

O=C(Nc1ccc(OCCN2CCOCC2)c2ccccc12)c1ccnc(N2CCC(N3CCCC3)CC2)c1 [Compound B125]
inhibition at 10 µM: 23.5%

O=C(Nc1ccc(OCCN2CCOCC2)c2ccccc12)c1ccnc(N2CCC(N3CCCCC3)CC2)c1 [Compound B129]
inhibition at 10 µM: 19.5%

CCOc1ccccc1-c1cccc(C(=O)Nc2ccc(OCCN3CCOCC3)c3ccccc23)c1 [Compound B109]
inhibition at 10 µM: 52%
IC50: 4.07 µM

O=C(Nc1ccc(OCCN2CCOCC2)c2ccccc12)c1cccc(N2CCC(N3CCCCC3)CC2)n1 [Compound B70]
inhibition at 10 µM: 14%

O=C(Nc1ccc(OCCN2CCOCC2)c2ccccc12)c1cccc2c1C(=O)c1ccccc1-2 [Compound B74]
inhibition at 10 µM: 31%

O=C(Nc1ccc(OCc2ccco2)c2ccccc12)c1cc(F)cc(N2CCOCC2)c1 [Compound B223]
IC50: 12.8 µM

O=C(Nc1ccc(OCCN2CCOCC2)c2ccccc12)c1cccc(C(=O)c2ccccc2)c1 [Compound B78]
inhibition at 10 µM: 34%
IC50: > 10 µM

CCOc1ccc(-c2cccc(C(=O)Nc3ccc(OCCN4CCOCC4)c4ccccc34)c2)cc1 [Compound B107]
inhibition at 10 µM: 2%

O=C(Nc1ccc(OCCN2CCOCC2)c2ccccc12)c1ccnc(N2CCc3ccccc3C2)c1 [Compound B121]
inhibition at 10 µM: 31.5%

CC(=O)N1CCN(c2cccc(C(=O)Nc3ccc(OCCN4CCOCC4)c4ccccc34)n2)CC1 [Compound B136]
inhibition at 10 µM: 10%

O=C(Nc1ccc(OCCN2CCOCC2)c2ccccc12)c1ccnc(N2Cc3ccccc3C2)c1 [Compound B132]
inhibition at 10 µM: 36%

Cc1cc(C(=O)Nc2ccc(OCCN3CCOCC3)c3ccccc23)cc(N2CCSC2)n1 [Compound B151]
inhibition at 10 µM: 0%

Cc1cc(C)cc(-c2cccc(C(=O)Nc3ccc(OCCN4CCOCC4)c4ccccc34)c2)c1 [Compound B113]
inhibition at 10 µM: 29%
IC50: > 10 µM

CC1CC(C)CN(c2cccc(C(=O)Nc3ccc(OCCN4CCOCC4)c4ccccc34)n2)C1 (stereo not shown) [Compound B141]
inhibition at 10 µM: 13%

CCc1ccc(-c2cccc(C(=O)Nc3ccc(OCCN4CCOCC4)c4ccccc34)c2)cc1 [Compound B102]
inhibition at 10 µM: 21%
IC50: > 100 µM

O=C(Nc1ccc(OCCN2CCOCC2)c2ccccc12)c1cccc(N2CCSC2)n1 [Compound B138]
inhibition at 10 µM: -36%

CN1CCN(CCOc2ccc(NC(=O)c3ccc(-n4ccc(C(F)(F)F)n4)cc3)c3ccccc23)CC1 [Compound B9]
inhibition at 10 µM: 21%

O=C(Nc1ccc(OCCN2CCOCC2)c2ccccc12)c1cccc(N2CCCCC2)n1 [Compound B142]
inhibition at 10 µM: 33%
IC50: > 100 µM

O=C(Nc1ccc(OCCN2CCOCC2)c2ccccc12)c1cccc(C(F)(F)F)c1 [Compound B73]
inhibition at 10 µM: 10%

COc1cc(-c2cccc(C(=O)Nc3ccc(OCCN4CCOCC4)c4ccccc34)c2)cc(OC)c1OC [Compound B112]
inhibition at 10 µM: 15%
IC50: > 100 µM

O=C(Nc1ccc(OCCN2CCSCC2)c2ccccc12)c1ccc(CN2CCS(=O)(=O)CC2)cc1 [Compound B17]
inhibition at 10 µM: 30.5%

C[C@@H]1CN(CCOc2ccc(NC(=O)c3ccnc(N4CCOCC4)c3)c3ccccc23)C[C@H](C)O1 [Compound B23]
inhibition at 10 µM: 38%

O=C(Nc1ccc(OCCN2CCOCC2)c2ccccc12)c1cccc(-c2cc(F)cc(F)c2)c1 [Compound B103]
inhibition at 10 µM: 68%
IC50: 1.63 µM

O=C(Nc1ccc(OCCN2CCOCC2)c2ccccc12)c1cccc(-c2cc(C(F)(F)F)cc(C(F)(F)F)c2)c1 [Compound B92]
inhibition at 10 µM: 0%

O=C(Nc1ccc(OCCN2CCCCC2)c2ccccc12)c1ccc(CN2CCS(=O)(=O)CC2)cc1 [Compound B14]
inhibition at 10 µM: 6%

O=C(Nc1ccc(OCCN2CCCCC2)c2ccccc12)c1ccc(-n2ccc(C(F)(F)F)n2)cc1 [Compound B10]
inhibition at 10 µM: 12.5%

O=C(Nc1ccc(OCCN2C(=O)CCC2=O)c2ccccc12)c1cc(F)cc(N2CCOCC2)c1 [Compound B221]
IC50: > 10 µM

O=C(Nc1ccc(OCCN2CCOCC2)c2ccccc12)c1cc(F)cc(C(F)(F)F)c1 [Compound B77]
inhibition at 10 µM: 28%

O=C(Nc1ccc(OCCN2CCOCC2)c2ccccc12)c1cccc(N2CCN(c3ccc(F)cc3)CC2)n1 [Compound B139]
inhibition at 10 µM: 7%

CCn1nc(C)cc1C(=O)Nc1ccc(OCCN2CCOCC2)c2ccccc12 [Compound B80]
inhibition at 10 µM: 9%

CCC(C)N(C)c1cccc(C(=O)Nc2ccc(OCCN3CCOCC3)c3ccccc23)n1 (stereo not shown) [Compound B149]
inhibition at 10 µM: 8.5%

O=C(Nc1ccc(OCCN2CCOCC2)c2ccccc12)c1cccc(-c2ccc(OC(F)(F)F)cc2)c1 [Compound B87, 4′-Trifluoromethoxy-biphenyl-3-carboxylic acid [4-(2-morpholin-4-yl-ethoxy)-naphthalen-1-yl]-amide]
inhibition at 10 µM: 29%
IC50: > 100 µM

CC(C)(C)CCNc1cccc(C(=O)Nc2ccc(OCCN3CCOCC3)c3ccccc23)n1 [Compound B147]
inhibition at 10 µM: 12%

Cc1cc(C(=O)Nc2ccc(OCCN3CCOCC3)c3ccccc23)cc(N2CCCC2c2ccccc2Cl)n1 (stereo not shown) [Compound B156]
inhibition at 10 µM: 19%
IC50: > 100 µM

Cc1cccc(N2CCN(c3cccc(C(=O)Nc4ccc(OCCN5CCOCC5)c5ccccc45)c3)CC2)c1 [Compound B172]
inhibition at 10 µM: 25%
